Data on 37 compounds can be found in patent US8815796B2, “Polyheterocyclic compounds highly potent as HCV inhibitors” (AB Pharma Ltd., priority 2010, dated 2014).

The target in the assay is T1, HCV NS3-4A protease (Hepatitis C virus genotype 1a, UniProt P27958).
T1 construct: HCV NS3-4A protease
Kind of assay: HCV NS3-4A protease assay in vitro (FRET-S substrate). Type of assay: biochemical. As for the experimental part:
HCV NS3-4A Protease Assay In Vitro.
The assay was conducted in Buffer A containing 30 mM NaCl, 5 mM CaCl2, 10 mM DTT, 50 mM Tris (pH7.8), using the Ac-Asp-Glu-Asp(EDANS)-Glu-Glu-Abu-ψ-[COO]-Ala-Ser-Lys (DABCYL)-NH2 (FRET-S) fluorescent peptide (AnaSpec, USA) as substrate. Briefly, 140 μL buffer A, 20 μL compounds dissolved in buffer A with different concentration and 20 μL HCV NS3-4A protease diluted in buffer A were added into 96-well plate respectively and mixed well. The reaction was initiate with adding 20 μL of FRET-S. Reactions were continuously monitored at 37° C. using a BMG Polarstar Galaxy (MTX Lab Systems, Inc. USA), with excitation and emission filters of 355 nm and 520 nm, respectively. The 50% inhibitory concentration (IC50) was calculated with Reed & Muench methods.

Setting [1] is: HCV NS3-4A protease inhibition, 37° C., class symbols, read-out: NS3-NS4A IC50.

Molecules are shown by their SMILES. Read-outs that look alike come from different tables or passages of the source. A value given as a limit tells only on which side of the number the result lay.

T1 sequence (P27958 1027-1657): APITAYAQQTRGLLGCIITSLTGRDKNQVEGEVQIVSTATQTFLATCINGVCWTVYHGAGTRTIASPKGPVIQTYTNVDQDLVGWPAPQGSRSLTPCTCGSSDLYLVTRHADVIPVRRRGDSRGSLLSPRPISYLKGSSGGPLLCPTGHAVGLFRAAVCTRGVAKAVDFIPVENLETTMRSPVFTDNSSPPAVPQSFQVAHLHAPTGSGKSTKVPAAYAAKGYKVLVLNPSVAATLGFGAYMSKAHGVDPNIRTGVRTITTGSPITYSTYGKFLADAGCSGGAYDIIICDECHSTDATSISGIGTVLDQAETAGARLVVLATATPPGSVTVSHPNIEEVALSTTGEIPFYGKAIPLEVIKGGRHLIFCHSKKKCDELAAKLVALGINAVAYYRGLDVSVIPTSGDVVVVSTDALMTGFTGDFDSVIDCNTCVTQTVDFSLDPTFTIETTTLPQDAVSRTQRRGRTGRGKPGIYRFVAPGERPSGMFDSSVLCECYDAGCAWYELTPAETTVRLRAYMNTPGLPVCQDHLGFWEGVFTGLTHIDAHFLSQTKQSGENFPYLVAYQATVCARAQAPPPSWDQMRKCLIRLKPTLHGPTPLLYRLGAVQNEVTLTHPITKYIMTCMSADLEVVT
T1 sequence (P27958 1658-1711): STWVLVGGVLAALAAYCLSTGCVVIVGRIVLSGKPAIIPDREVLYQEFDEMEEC

One may read the IC50 as the midpoint of a concentration-inhibition curve. Compound `CC[C@H]1C[C@@]1(NC(=O)C1C[C@@H](OC(=O)N2Cc3ccc4c(c3C2)OCO4)CN1C(=O)[C@@H](NC(=O)[C@@H](NC(=O)c1cnccn1)C1CCCCC1)C(C)(C)C)C(=O)NS(=O)(=O)C1CC1` (stereo partly shown) [Compound 30f] had an IC50 of less than 30 nM.
On to `CC[C@H]1C[C@@]1(NC(=O)C1C[C@@H](OC(=O)N2Cc3cc4c(cc3C2)OCO4)CN1C(=O)[C@@H](NC(=O)OC(C)(C)C)C(C)(C)C)C(=O)NS(=O)(=O)C1CC1` (stereo partly shown) [Compound 30ag], for which the IC50 under setting [1] was less than 30 nM.
As for `O=C1N[C@]2(C(=O)NS(=O)(=O)C3CC3)C[C@H]2/C=C\CCCCC[C@H](N2CCCS2(=O)=O)C(=O)N2C[C@H](OC(=O)N3Cc4cc5c(cc4C3)OCCO5)C[C@@H]12` [Compound 12j], the IC50 under setting [1] lay in the range of 30 to 200 nM.
Same read-out and setting: next, `O=C1N[C@]2(C(=O)NS(=O)(=O)C3CC3)C[C@H]2/C=C\CCCCC[C@H](N2CCCS2(=O)=O)C(=O)N2C[C@H](OC(=O)N3Cc4cccc(F)c4C3)C[C@@H]12` [Compound 12m]: 30 to 200 nM; `O=C1N[C@]2(C(=O)NS(=O)(=O)C3CC3)C[C@H]2/C=C\CCCCN(C2CC2)C(=O)C2C[C@H](OC(=O)N3Cc4cc5c(cc4C3)OCO5)C[C@@H]12` (stereo partly shown) [Compound 21a]: 30 to 200 nM; `CC[C@H]1C[C@@]1(NC(=O)C1C[C@@H](OC(=O)N2Cc3cc4c(cc3C2)OCO4)CN1C(=O)[C@@H](NC(=O)OC1CCCC1)C(C)(C)C)C(=O)NS(=O)(=O)C1CC1` (stereo partly shown) [Compound 30am]: less than 30 nM.
Still for that read-out and setting: next, `CC[C@H]1C[C@@]1(NC(=O)C1C[C@@H](OC(=O)N2Cc3cc4c(cc3C2)OCO4)CN1C(=O)[C@@H](NC(=O)[C@@H](NS(=O)(=O)c1cccc2ccccc12)C1CCCCC1)C(C)(C)C)C(=O)NS(=O)(=O)C1CC1` (stereo partly shown) [Compound 30p]: less than 30 nM.
Same read-out and setting: next, `CC(C)S(=O)(=O)NC(=O)[C@@]12C[C@H]1/C=C\CCCCC[C@H](NC(=O)OC(C)(C)C)C(=O)N1C[C@H](OC(=O)N3Cc4cc5c(cc4C3)OCCO5)C[C@H]1C(=O)N2` [Compound 12g]: less than 30 nM; `CC(C)(C)OC(=O)N[C@H]1CCCCC/C=C\[C@@H]2C[C@@]2(C(=O)O)NC(=O)[C@@H]2C[C@@H](OC(=O)N3Cc4cc5c(cc4C3)OCCO5)CN2C1=O` [Compound 11c]: more than 200 nM.
In the case of `CC(C)S(=O)(=O)NC(=O)[C@@]12C[C@H]1/C=C\CCCCC[C@H](NC(=O)OC(C)(C)C)C(=O)N1C[C@H](OC(=O)N3Cc4ccc5c(c4C3)OCO5)C[C@H]1C(=O)N2` [Compound 12e], the IC50 under setting [1] was less than 30 nM.
On to `CC(C)S(=O)(=O)NC(=O)[C@@]12C[C@H]1/C=C\CCCCC[C@H](NC(=O)OC(C)(C)C)C(=O)N1C[C@H](OC(=O)N3Cc4ccc5c(c4C3)OCCO5)C[C@H]1C(=O)N2` [Compound 12f], for which the IC50 under setting [1] is less than 30 nM.
Consider `CC[C@H]1C[C@@]1(NC(=O)C1C[C@@H](OC(=O)N2Cc3cc4c(cc3C2)OCO4)CN1C(=O)[C@@H](NC(=O)[C@@H](NC(=O)NC(C)(C)C)C1CCCCC1)C(C)(C)C)C(=O)NS(=O)(=O)C1CC1` (stereo partly shown) [Compound 30ac], for which the IC50 was less than 30 nM.
On the same count and under the same terms, to `CC[C@H]1C[C@@]1(NC(=O)C1C[C@@H](OC(=O)N2Cc3cc4c(cc3C2)OCO4)CN1C(=O)[C@@H](NC(=O)[C@@H](NC(=O)OCC1c2ccccc2-c2ccccc21)C1CCCCC1)C(C)(C)C)C(=O)NS(=O)(=O)C1CC1` (stereo partly shown) [Compound 30aa] belongs less than 30 nM.
As to `CC[C@H]1C[C@@]1(NC(=O)C1C[C@@H](OC(=O)N2Cc3cc4c(cc3C2)OCO4)CN1C(=O)[C@@H](NC(=O)[C@@H](NS(=O)(=O)c1ccccc1)C1CCCCC1)C(C)(C)C)C(=O)NS(=O)(=O)C1CC1` (stereo partly shown) [Compound 30r], the IC50 under setting [1] was less than 30 nM.
As to `CC[C@H]1C[C@@]1(NC(=O)C1C[C@@H](OC(=O)N2Cc3ccc4c(c3C2)OCCCO4)CN1C(=O)[C@@H](NC(=O)[C@@H](NC(=O)c1cnccn1)C1CCCCC1)C(C)(C)C)C(=O)NS(=O)(=O)C1CC1` (stereo partly shown) [Compound 30j], the IC50 was less than 30 nM.
Turning to `O=C1N[C@]2(C(=O)NS(=O)(=O)C3CC3)C[C@H]2/C=C\CCCCCN(C2CC2)C(=O)N2CC(OC(=O)N3Cc4cccc(F)c4C3)C[C@@H]12` (stereo partly shown) [Compound 27-Ref-2, reference compound], the IC50 under setting [1] was 30 to 200 nM.
Take `C=C[C@H]1C[C@@]1(NC(=O)C1C[C@@H](OC(=O)N2Cc3cccc(F)c3C2)CN1C(=O)[C@@H](NC(=O)[C@@H](NC(=O)c1cnccn1)C1CCCCC1)C(C)(C)C)C(=O)NS(=O)(=O)C1CC1` (stereo partly shown) [Compound 30k]: the IC50 is less than 30 nM.
With `CC[C@H]1C[C@@]1(NC(=O)C1C[C@@H](OC(=O)N2Cc3cc4c(cc3C2)OCO4)CN1C(=O)[C@@H](NC(=O)[C@@H](NS(C)(=O)=O)C1CCCCC1)C(C)(C)C)C(=O)NS(=O)(=O)C1CC1` (stereo partly shown) [Compound 30n], the IC50 under setting [1] is less than 30 nM.
In the case of `C=C[C@H]1C[C@@]1(NC(=O)C1C[C@@H](OC(=O)N2Cc3cccc(F)c3C2)CN1C(=O)[C@@H](NC(=O)OC1CCCC1)C(C)(C)C)C(=O)NS(=O)(=O)C1CC1` (stereo partly shown) [Compound 30aq], the IC50 under setting [1] was less than 30 nM.
`CCC[C@H](NC(=O)C1C[C@@H](OC(=O)N2Cc3cc4c(cc3C2)OCO4)CN1C(=O)[C@@H](NC(=O)[C@@H](NC(=O)c1cnccn1)C1CCCCC1)C(C)(C)C)C(=O)C(=O)NC1CC1` (stereo partly shown) [Compound 33a]: the IC50 lay within 30 to 200 nM.
In turn, `C=C[C@H]1C[C@@]1(NC(=O)C1C[C@@H](OC(=O)N2Cc3cc4c(cc3C2)OCO4)CN1C(=O)[C@@H](NC(=O)[C@@H](NC(=O)NC(C)(C)C)C1CCCCC1)C(C)(C)C)C(=O)NS(=O)(=O)C1CC1` (stereo partly shown) [Compound 30ab] gave a 50% inhibitory concentration (IC50) of less than 30 nM.
For `O=C1N[C@]2(C(=O)NS(=O)(=O)C3CC3)C[C@H]2/C=C\CCCCC[C@H](N2CCCS2(=O)=O)C(=O)N2C[C@H](OC(=O)N3Cc4cc5c(cc4C3)OCO5)C[C@@H]12` [Compound 12k], under setting [1], the IC50 is less than 30 nM.
Regarding `C=C[C@H]1C[C@@]1(NC(=O)C1C[C@@H](OC(=O)N2Cc3cc4c(cc3C2)OCCO4)CN1C(=O)[C@@H](NC(=O)[C@@H](NC(=O)c1cnccn1)C1CCCCC1)C(C)(C)C)C(=O)NS(=O)(=O)C1CC1` (stereo partly shown) [Compound 30c], the IC50 was less than 30 nM.
For the compound `O=C1N[C@]2(C(=O)NS(=O)(=O)C3CC3)C[C@H]2/C=C\CCCCCN(C2CC2)C(=O)C2C[C@H](OC(=O)N3Cc4cc5c(cc4C3)OCO5)C[C@@H]12` (stereo partly shown) [Compound 21b], the IC50 under setting [1] was in the range of 30 to 200 nM.
Consider `C=C[C@H]1C[C@@]1(NC(=O)C1C[C@@H](OC(=O)N2Cc3cc4c(cc3C2)OCO4)CN1C(=O)[C@@H](NC(=O)[C@@H](NC(=O)c1cnccn1)C1CCCCC1)C(C)(C)C)C(=O)NS(=O)(=O)C1CC1` (stereo partly shown) [Compound 30a], for which the half-inhibitory concentration (IC50) was less than 30 nM.
On to `CN1CCCCC/C=C\[C@@H]2C[C@@]2(C(=O)NS(=O)(=O)C2CC2)NC(=O)[C@@H]2C[C@@H](OC(=O)N3Cc4cc5c(cc4C3)OCO5)CC2C1=O` (stereo partly shown) [Compound 21e], for which the IC50 under setting [1] is less than 30 nM.
Same read-out and setting: to `CN1CCCC/C=C\[C@@H]2C[C@@]2(C(=O)NS(=O)(=O)C2CC2)NC(=O)[C@@H]2C[C@@H](OC(=O)N3Cc4cc5c(cc4C3)OCO5)CC2C1=O` (stereo partly shown) [Compound 21c] belongs less than 30 nM; to `C=C[C@H]1C[C@@]1(NC(=O)C1C[C@@H](OC(=O)N2Cc3ccc4c(c3C2)OCO4)CN1C(=O)[C@@H](NC(=O)OC(C)(C)C)C(C)(C)C)C(=O)NS(=O)(=O)C1CC1` (stereo partly shown) [Compound 30ah], less than 30 nM.
Regarding `C=C[C@H]1C[C@@]1(NC(=O)C1C[C@@H](OC(=O)N2Cc3cc4c(cc3C2)OCO4)CN1C(=O)[C@@H](NC(=O)OC1CCCC1)C(C)(C)C)C(=O)NS(=O)(=O)C1CC1` (stereo partly shown) [Compound 30ak], the IC50 under setting [1] is less than 30 nM.
On the same count and under the same terms, to `O=C1N[C@]2(C(=O)NS(=O)(=O)C3CC3)C[C@H]2/C=C\CCCCC[C@H](Nc2cccc(F)c2)C(=O)N2C[C@H](OC(=O)N3Cc4cc5c(cc4C3)OCO5)C[C@@H]12` [Compound 15b] belongs less than 30 nM; to `CC(C)(C)OC(=O)N[C@H]1CCCCC/C=C\[C@@H]2C[C@@]2(C(=O)NS(=O)(=O)C2CC2)NC(=O)[C@@H]2C[C@@H](OC(=O)N3Cc4ccc5c(c4C3)OCO5)CN2C1=O` [Compound 12a], less than 30 nM.
On to `CC[C@H]1C[C@@]1(NC(=O)C1C[C@@H](OC(=O)N2Cc3cc4c(cc3C2)OCO4)CN1C(=O)[C@@H](NC(=O)[C@@H](NC(=O)c1cnccn1)C1CCCCC1)C(C)(C)C)C(=O)NS(=O)(=O)C1CC1` (stereo partly shown) [Compound 30b], for which the IC50 is less than 30 nM.
The same measure, in the same setting: next, `C=C[C@H]1C[C@@]1(NC(=O)C1C[C@@H](OC(=O)N2Cc3ccc4c(c3C2)OCO4)CN1C(=O)[C@@H](NC(=O)[C@@H](NC(=O)c1cnccn1)C1CCCCC1)C(C)(C)C)C(=O)NS(=O)(=O)C1CC1` (stereo partly shown) [Compound 30e]: less than 30 nM; `CC[C@H]1C[C@@]1(NC(=O)C1C[C@@H](OC(=O)N2Cc3cc4c(cc3C2)OCO4)CN1C(=O)[C@@H](NC(=O)[C@@H](NC(=O)OC)C1CCCCC1)C(C)(C)C)C(=O)NS(=O)(=O)C1CC1` (stereo partly shown) [Compound 30x]: less than 30 nM.
Turning to `CC(C)(C)OC(=O)N[C@H]1CCCCC/C=C\[C@@H]2C[C@@]2(C(=O)NS(=O)(=O)C2CC2)NC(=O)[C@@H]2C[C@@H](OC(=O)N3Cc4cc5c(cc4C3)OCO5)CN2C1=O` [Compound 12d], the IC50 under setting [1] is less than 30 nM.
For the compound `CC[C@H]1C[C@@]1(NC(=O)C1C[C@@H](OC(=O)N2Cc3cc4c(cc3C2)OCO4)CN1C(=O)[C@@H](NC(=O)[C@@H](NC(=O)Oc1ccccc1)C1CCCCC1)C(C)(C)C)C(=O)NS(=O)(=O)C1CC1` (stereo partly shown) [Compound 30z], the IC50 was less than 30 nM.
For the compound `CC(C)OC(=O)N[C@H]1CCCCC/C=C\[C@@H]2C[C@@]2(C(=O)NS(=O)(=O)C2CC2)NC(=O)[C@@H]2C[C@@H](OC(=O)N3Cc4cc5c(cc4C3)OCO5)CN2C1=O` [Compound 12q], the IC50 under setting [1] is less than 30 nM.
